Source: paper PMC4057607 (Journal of immunology (Baltimore, Md. : 1950), 2013)

Target: soluble HLA-A*02:01 molecules (Homo sapiens, UniProt P04439, D140Y/D185E/D98H/E176V/E277Q/G131W/G231S/I119V/I121R/I166T/I218V/L300P/L318F/N151K/N90K/P208A/P217A/Q86G/Q94H/R138H/R169H/T345S)
Experiment: Binding with soluble HLA-A*02:01 molecules

SMILES: CSCC[C@H](NC(=O)[C@@H](N)[C@@H](C)O)C(=O)N[C@@H](CC(C)C)C(=O)N[C@@H](CCC(=O)O)C(=O)N[C@@H](CC(=O)O)C(=O)N[C@@H](Cc1c[nH]cn1)C(=O)N[C@@H](CCC(=O)O)C(=O)N[C@@H](Cc1ccccc1)C(=O)N[C@H](C(=O)O)C(C)C [gB675–683]
- Kd: ~95 nM
